Holding throughout (format): in vivo
In test [1] the test system is Mediterranean Fruitfly (Ceratitis capitata). In words: B.6 Mediterranean Fruitfly (Ceratitis capitata), microtiter plate insect diet. The conditions noted are these: 120 h, 800 ppm, sprayed onto insect diet, 5 days, in comparison with untreated controls, read-out: mortality (egg and larval). Here is the method: B.6 Mediterranean Fruitfly (Ceratitis capitata)
For evaluating control of Mediterranean fruitfly (Ceratitis capitata) the test unit consisted of microtiter plates containing an insect diet and 50-80 C. capitata eggs.
(§1) The compounds were formulated using a solution containing 75% v/v water and 25% v/v DMSO. Different concentrations of formulated compounds were sprayed onto the insect diet at 5 μl, using a custom built micro atomizer, at two replications.
(§2) After application, microtiter plates were incubated at about 28±1° C. and about 80±5% relative humidity for 5 days. Egg and larval mortality was then visually assessed.

The subject of test [2] is Tobacco Budworm (Heliothis virescens). As to the kind of experiment: B.7 Tobacco Budworm (Heliothis virescens) I, microtiter plate insect diet. The conditions noted are these: 120 h, 800 ppm, sprayed onto insect diet, 5 days, in comparison with untreated controls, read-out: mortality (egg and larval). The method, then: B.7 Tobacco Budworm (Heliothis virescens) I
For evaluating control of tobacco budworm (Heliothis virescens) the test unit consisted of 96-well-microtiter plates containing an insect diet and 15-25 H. virescens eggs. The compounds were formulated using a solution containing 75% v/v water and 25% v/v DMSO. Different concentrations of formulated compounds were sprayed onto the insect diet at 10 μl, using a custom built micro atomizer, at two replications.
as §2

Test [3] relates to Boll Weevil (Anthonomus grandis). In words: B.3 Boll Weevil (Anthonomus grandis), microtiter plate insect diet. The conditions noted are these: 120 h, 800 ppm, sprayed onto insect diet, 5 days, in comparison with untreated controls, read-out: mortality (egg and larval). Here is the method: B.3 Boll Weevil (Anthonomus grandis)
For evaluating control of boll weevil (Anthonomus grandis) the test unit consisted of 96-well-microtiter plates containing an insect diet and 5-10 A. grandis eggs.
as §1
After application, microtiter plates were incubated at about 25±1° C. and about 75±5% relative humidity for 5 days. Egg and larval mortality was then visually assessed.

Test [4] relates to Diamond Back Moth (Plutella xylostella). In words: B.1 Diamond Back Moth (Plutella xylostella), cabbage leaf dip. The conditions noted are these: foliar, 500 ppm, 3rd instar larvae on dipped cabbage leaves, 72 hours after treatment, in comparison with untreated controls, read-out: mortality. The method, then: B.1 Diamond Back Moth (Plutella xylostella)
The active compound was dissolved at the desired concentration in a mixture of 1:1 (vol:vol) distilled water:aceteone. Surfactant (Kinetic HV) was added at a rate of 0.01% (vol/vol). The test solution was prepared at the day of use.
Leaves of cabbage were dipped in test solution and air-dried. Treated leaves were placed in petri dishes lined with moist filter paper and inoculated with ten 3rd instar larvae. Mortality was recorded 72 hours after treatment. Feeding damages were also recorded using a scale of 0-100%.

Molecules are shown by their SMILES. Bounds are passed on as bounds.

Drawing on patent publication US9497970B2, “Pesticide compounds” (priority 2013, dated 2016), this text covers mortality for 22 compounds.

Broadly, the mortality is the share of the test organisms that died. For the compound `FC(F)(F)Oc1ccc(-n2cnc3c4ccc(/C=N/NC(=S)Nc5c(Cl)cc(Cl)cc5Cl)cc4ccc32)cc1` [C-3, 1-(2,4,6-trichlorophenyl)-3-[(E)-[3-[4-(trifluoromethoxy)phenyl]benzo[e]benzimidazol-7-yl]methyleneamino] thiourea], the mortality at 800 ppm in test [1], in test [2] and in test [3] was not below 75% throughout. In addition, the mortality at 500 ppm in test [4] is not below 75%.

Consider `Cc1cccc(C)c1NC(=S)N/N=C/c1ccc2c(c1)CCc1c-2nnn1-c1ccc(OC(F)(F)F)cc1` [C-11, 1-(2,6-dimethylphenyl)-3-[(E)-[3-[4-(trifluoromethoxy)phenyl]-4,5-dihydrobenzo[e]benzotriazol-7-yl]methyleneamino]thiourea], for which the mortality at 800 ppm in test [1] and in test [2] was not below 75% throughout.

Take `COc1ccccc1NC(=S)N/N=C/c1ccc2c(ccc3c2ncn3-c2ccc(OC(F)(F)F)cc2)c1` [C-26, 3-(2-methoxyphenyl)-1-[[3-[4-(trifluoromethoxy)phenyl]-9aH-benzo[e]benzimidazol-7-ylidene]methylimino] isothiourea]: the mortality at 800 ppm in test [1], in test [2] and in test [3] was not below 75% throughout. Also, the mortality at 500 ppm in test [4] is not below 75%.

For `FC(F)(F)Oc1ccc(-n2cnc3c4ccc(/C=N/NC(=S)Nc5ccc(Cl)cc5Cl)cc4ccc32)cc1` [C-27, 1-(2,4-dichlorophenyl)-3-[(E)-[3-[4-(trifluoromethoxy)phenyl]benzo[e]benzimidazol-7-yl]methyleneamino]thiourea], the mortality at 800 ppm in test [1] and in test [3] was not below 75% throughout. Further, the mortality at 500 ppm in test [4] is not below 75%.

On to `Cc1cccc(NC(=S)N/N=C/c2ccc3c(ccc4c3ncn4-c3ccc(OC(F)(F)F)cc3)c2)c1C` [C-28, 1-(2,3-dimethylphenyl)-3-[(E)-[3-[4-(trifluoromethoxy)phenyl]benzo[e]benzimidazol-7-yl]methyleneamino] thiourea], for which the mortality at 800 ppm in test [1], in test [2] and in test [3] was not below 75% each time.

For the compound `CCc1ccccc1NC(=S)N/N=C/c1ccc2c(c1)CCc1c-2nnn1-c1ccc(OC(F)(F)F)cc1` [C-32, 1-(2-ethylphenyl)-3-[[3-[4-(trifluoromethoxy)phenyl]-5,6-dihydro-4H-benzo[e]benzotriazol-7-ylidene]methylimino]thiourea], the mortality at 800 ppm in test [3] is not below 75%.

With `Cc1cc(Br)cc(C)c1NC(=S)N/N=C/c1ccc2c(c1)CCc1c-2nnn1-c1ccc(OC(F)(F)F)cc1` [C-33, 1-(4-bromo-2,6-dimethyl-phenyl)-3-[(E)-[3-[4-(trifluoromethoxy)phenyl]-4,5-dihydrobenzo[e]benzotriazol-7-yl]methyleneamino]thiourea], the mortality at 800 ppm in test [2] and in test [3] was not below 75% in each case.

On to `Cc1c(Cl)cccc1NC(=S)N/N=C/c1ccc2c(ccc3c2ncn3-c2ccc(OC(F)(F)F)cc2)c1` [C-39, 1-(3-chloro-2-methyl-phenyl)-3-[(E)-[3-[4-(trifluoromethoxy)phenyl]benzo[e]benzimidazol-7-yl]methyleneamino] thiourea], for which the mortality at 800 ppm in test [1], in test [2] and in test [3] was not below 75% in each case.

With `Fc1ccccc1NC(=S)N/N=C/c1ccc2c(ccc3c2ncn3-c2ccc(OC(F)(F)F)cc2)c1` [C-40, 3-(2-fluorophenyl)-1-[[3-[4-(trifluoromethoxy)phenyl]-5H-benzo[e]benzimidazol-7-ylidene]methylimino] isothiourea], the mortality at 800 ppm in test [1] and in test [3] was not below 75% throughout. Moreover, in test [4], the mortality at 500 ppm was not below 75%.

For the compound `FC(F)(F)Oc1ccc(-n2cnc3c4ccc(/C=N/NC(=S)Nc5cc(Cl)ccc5Cl)cc4ccc32)cc1` [C-42, 1-(2,5-dichlorophenyl)-3-[(E)-[3-[4-(trifluoromethoxy)phenyl]benzo[e]benzimidazol-7-yl]methyleneamino] thiourea], the mortality at 800 ppm in test [3] was not below 75%.

In the case of `FC(F)(F)Oc1ccc(-n2ncc3c4ccc(/C=N/NC(=S)Nc5c(Cl)cccc5Cl)cc4ccc32)cc1` [C-49, 1-(2,6-dichlorophenyl)-3-[(E)-[3-[4-(trifluoromethoxy)phenyl]benzo[e]indazol-7-yl]methyleneamino]thiourea], the mortality at 800 ppm in test [2] and in test [3] was not below 75% each time.

Consider `Cc1cccc(C)c1NC(=S)N/N=C/c1ccc2c(ccc3c2nnn3-c2ccc(OC(F)(F)F)cc2)c1` [C-54, 1-(2,6-dimethylphenyl)-3-[(E)-[3-[4-(trifluoromethoxy)phenyl]benzo[e]benzotriazol-7-yl]methyleneamino] thiourea], for which, in test [2], the mortality at 800 ppm is not below 75%.

With `C/C(=N\NC(=S)Nc1c(Cl)cccc1Cl)c1ccc2c(ccc3c2ncn3-c2ccc(OC(F)(F)F)cc2)c1` [C-59], the mortality at 800 ppm in test [1], in test [2] and in test [3] was not below 75% throughout.

On to `CCc1cccc(CC)c1NC(=S)N/N=C/c1ccc2c(ccc3c2nnn3-c2ccc(OC(F)(F)F)cc2)c1` [C-61, 1-(2,6-diethylphenyl)-3-[(E)-[3-[4-(trifluoromethoxy)phenyl]benzo[e]benzotriazol-7-yl]methyleneamino] thiourea], for which the mortality at 800 ppm in test [2] and in test [3] was not below 75% in each case.

Turning to `CCc1cccc(C)c1NC(=S)N/N=C/c1ccc2c(ccc3c2nnn3-c2ccc(OC(F)(F)F)cc2)c1` [C-62, 1-(2-ethyl-6-methyl-phenyl)-3-[(E)-[3-[4-(trifluoromethoxy)phenyl]benzo[e]benzotriazol-7-yl]methyleneamino] thiourea], in test [2], the mortality at 800 ppm is not below 75%.

In the case of `Cc1cccnc1NC(=S)N/N=C/c1ccc2c(ccc3c2ncn3-c2ccc(OC(F)(F)F)cc2)c1` [C-63, 1-(3-methyl-2-pyridyl)-3-[(E)-[3-[4-(trifluoromethoxy)phenyl]benzo[e]benzimidazol-7-yl]methyleneamino] thiourea], the mortality at 800 ppm in test [1], in test [2] and in test [3] was not below 75% each time.

Turning to `FC(F)(F)Oc1ccc(-n2cnc3c4ccc(/C=N/NC(=S)Nc5ccccc5I)cc4ccc32)cc1` [C-64, 1-(2-iodophenyl)-3-[[3-[4-(trifluoromethoxy)phenyl]-5H-benzo[e]benzimidazol-7-ylidene]methylimino] thiourea], the mortality at 800 ppm in test [1], in test [2] and in test [3] was not below 75% in each case.

`FC(F)(F)Oc1ccc(-n2cnc3c4ccc(/C=N/NC(=S)Nc5cccnc5)cc4ccc32)cc1` [C-73, 1-(3-pyridyl)-3-[(E)-[3-[4-(trifluoromethoxy)phenyl]benzo[e]benzimidazol-7-yl]methyleneamino] thiourea]: the mortality at 800 ppm in test [3] was not below 75%.

`O=C(N/N=C/c1ccc2c(ccc3c2ncn3-c2ccc(OC(F)(F)F)cc2)c1)Nc1ccccc1` [C-89, 1-phenyl-3-[(E)-[3-[4-(trifluoromethoxy)phenyl]benzo[e]benzimidazol-7-yl]methyleneamino]urea]: the mortality at 800 ppm in test [2] and in test [3] was not below 75% each time. Further, in test [4], the mortality at 500 ppm was not below 75%.

With `CN1N=C2c3ccc(/C=N/NC(=S)Nc4c(Cl)cccc4Cl)cc3CCC2C1c1ccc(OC(F)(F)F)cc1` (stereo not drawn) [C-95, 1-(2,6-dichlorophenyl)-3-[(E)-[2-methyl-3-[4-(trifluoromethoxy)phenyl]-3,3a,4,5-tetrahydrobenzo[g]indazol-7-yl]methyleneamino]thiourea], the mortality at 800 ppm in test [2] and in test [3] was not below 75% throughout. Further, the mortality at 500 ppm in test [4] was not below 75%.

Turning to `Cn1nc2c(ccc3cc(/C=N/NC(=S)Nc4ncccc4I)ccc32)c1-c1ccc(OC(F)(F)F)cc1` [C-102, 1-(3-iodo-2-pyridyl)-3-[(E)-[2-methyl-3-[4-(trifluoromethoxy)phenyl]benzo[g]indazol-7-yl]methyleneamino]thiourea], in test [3], the mortality at 800 ppm is not below 75%.

Take `O=C(/N=C1\SCC(=O)N1c1ccccc1C(F)(F)F)Nc1ccc2c(ccc3c2ncn3-c2ccc(OC(F)(F)F)cc2)c1` [C-116, (1Z)-1-[4-oxo-3-[2-(trifluoromethyl)phenyl]thiazolidin-2-ylidene]-3-[3-[4-(trifluoromethoxy)phenyl]-8H-benzo[e]benzimidazol-7-ylidene]urea]: the mortality at 800 ppm in test [2] and in test [3] was not below 75% throughout.
